The text below walks through data of patent US11406713B2, “Xanthine oxidase inhibitor formulations” (XORTX THERAPEUTICS, INC., priority 2013, dated 2022).

Structures are written as SMILES.

For data set [1] the following is noted: background statement; cited from earlier work.
For data set [2] the following is noted: background statement; cited from earlier work. This is another data set of the same source.
Data set [3] can be described thus: equilibrium solubility and dissolution profile of oxypurinol in aqueous solution. Conditions: for equilibrium solubility, dissolution and solubility: compared to oxypurinol free acid (FIG. 1). The format is physicochemical.

Regarding `Oc1ncnc2[nH]ncc12` [Allopurinol, 4-hydroxy-pyrazolo[3,4-d]pyrimidine], the bioavailability result in data set [1] is recorded as “poorly bioavailable”. Besides, the solubility entry in data set [2] is on record as “poorly soluble”.

On to `O=c1[nH]c(=O)c2c[nH]nc2[nH]1` [oxypurinol, 4,6-dihydroxypyrazolo[3,4-d]pyrimidine], for which, in data set [1], the bioavailability entry is recorded as “poorly bioavailable”. Moreover, the “equilibrium solubility, dissolution and solubility” value was “increased dissolution and solubility” in data set [3] (aqueous solution, in the presence of a 1 molar equivalent of lysine, FIG. 2); “increased dissolution and solubility” in data set [3] (in the presence of a 1 molar equivalent of L-arginine, FIG. 3). For the same compound, in data set [3] (in choline, FIG. 4), the “equilibrium solubility, dissolution” value was “increased dissolution”. In addition, the “equilibrium solubility, dissolution rate and solubility” value in data set [3] (using organic and or basic organic molecules, in aqueous solutions, compared to oxypurinol free acid) was “increased equilibrium solubility, increased dissolution rate and solubility”. Moreover, the solubility entry in data set [2] is on record as “poorly soluble”.
